Results on seven molecules are retold here after patent US6825194B2, “Hexacyclic compounds” (Chugai Seiyaku Kabushiki Kaisha, priority 2001, dated 2004).

Read-outs that look alike come from different tables or passages of the source.

For orientation: IC50 means the point on the concentration scale where inhibition reaches its midpoint.

Data set [1] has as its system DLD-1. The experiment in a line: Anti-proliferative activity assay, DLD-1. In kind it is cell-based, human. The conditions noted are these: DLD-1 colorectal cancer cells, 4 days, WST-8, read-out: Anti-proliferative activity assay (IC50 in nM) DLD-1 (CRC). As for the experimental part: (§1) Antiproliferative activity assay was carried out as follows. A single suspension of tumor cells was inoculated to the serially diluted 96-well microtestplate. Then the testplate was incubated in the 5% CO2 ambience at 37° C. for 4 days (2-3×10^3 cells/well). The degree of cell growth in a monolayer was measured by using WST-8 (Dojindo, Japan). IC50 values of drugs against tumor cells were calculated as the concentration of drug yielding 50% OD of the control growth. The IC50 value measures the drug concentration for 50% of the growth of tumor cells in vitro as compared to the control.
(§2) The anti-tumor activities of hexacyclic compounds of the formula [1A] and [1B] against in vitro growth of human tumor cell lines, HCT116 and DLD-1 of colorectal cancer (CRC) and QG56 and NCI-H460 of non small cell lung cancer (NSCLC) are summarized in Table 1. These cell lines are commercially available via the American Type Culture Collection (ATTC).
A general note: Tetrazolium assays rely on reduction of a dye to a coloured formazan, in cell work by metabolically active cells.

Data set [2] has as its system NCI-H460. The experiment in a line: Anti-proliferative activity assay, NCI-H460. As to conditions: NCI-H460 non small cell lung cancer cells, 4 days, WST-8, read-out: Anti-proliferative activity assay (IC50 in nM) NCI-H460 (NSCLC). The data set is classed as cell-based, human. As for the experimental part: as §1, §2
For data set [3], the system named is QG56. The experiment in a line: Anti-proliferative activity assay, QG56. The data set is classed as cell-based, human. The conditions noted are these: QG56 non small cell lung cancer cells, 4 days, WST-8, read-out: Anti-proliferative activity assay (IC50 in nM) QG56 (NSCLC). As for the experimental part:
as §1, §2

The subject of data set [4] is HCT116. The experiment in a line: Anti-proliferative activity assay, HCT116. The data set is classed as cell-based, human. As to conditions: HCT116 colorectal cancer cells, 4 days, WST-8, read-out: Anti-proliferative activity assay (IC50 in nM) HCT116 (CRC). As for the experimental part: as §1, §2
For data set [5] the following is noted: converted to the inactive carboxylate form; cited from earlier work.

For `CC[C@@]1(O)C(=O)OCc2c1cc1n(c2=O)Cc2c-1nc1cccc3c1c2NC(=S)N3CCC(C)C` [Compound D, (9S)-9-ethyl-9-hydroxy-1-(3-methylbutyl)-2(3H)-thioxo-1H,12H-pyrano[3″,4″:6′,7′]indolizino[1′,2′:6,5]pyrido[4,3,2-de]quinazoline-10,13(9H,15H)-dione], the IC50 in data set [1] amounted to 15 nM; in data set [2], 10 nM; in data set [3] it was 17 nM; in data set [4], 5.1 nM.
For `CCCCCN1C(C)=Nc2cccc3nc4c(c1c23)Cn1c-4cc2c(c1=O)COC(=O)[C@]2(O)CC` [Compound E, (9S)-9-ethyl-9-hydroxy-2-methyl-1-pentyl-1H,12H-pyrano[3″,4″:6′,7′]indolizino[1′,2′:6,5]pyrido[4,3,2-de]quinazoline-10,13(9H,15H)-dione], the IC50 in data set [1] (Homo sapiens, 96 h) stood at 15 nM; in data set [2] (Homo sapiens, 96 h), 7.9 nM; in data set [3] (Homo sapiens, QG-56, 96 h) it was 15 nM; in data set [4] (Homo sapiens, HCT-116, 96 h), 4.5 nM.
Regarding `CC[C@@]1(O)C(=O)OCc2c1cc1n(c2=O)Cc2cc3ccccc3nc2-1` [camptothecin, 4(S)-ethyl-4-hydroxy-1H-pyrano[3′,4′:6,7]indolizino[1,2-b]quinoline-3,14(4H,12H)-dione], in data set [5], the half-life in plasma result is on record as “less than 30 min”.
For the molecule `CC[C@@]1(O)C(=O)OCc2c1cc1n(c2=O)Cc2c-1nc1cccc3c1c2N(CCC(C)C)C(CO)=N3` [Compound F, (9S)-9-ethyl-9-hydroxy-2-hydroxymethyl-1-(3-methylbutyl)-1H,12H-pyrano[3″,4″:6′,7′]indolizino[1′,2′:6,5]pyrido[4,3,2-de]quinazoline-10,13(9H,15H)-dione], the IC50 in data set [1] (Homo sapiens, 96 h) is 12 nM; in data set [2] (Homo sapiens, 96 h), 4.8 nM; in data set [3] (Homo sapiens, QG-56, 96 h), 7.4 nM; in data set [4] (Homo sapiens, HCT-116, 96 h) it was 3.1 nM.
For `CCCCCN1C=Nc2cccc3nc4c(c1c23)Cn1c-4cc2c(c1=O)COC(=O)[C@]2(O)CC` [Compound B, (9S)-9-ethyl-9-hydroxy-1-pentyl-1H,12H-pyrano[3″,4″:6′,7′]indolizino[1′,2′:6,5]pyrido[4,3,2-de]quinazoline-10,13(9H,15H)-dione], in that order: 23 nM, 7 nM, 7.7 nM and 6.1 nM.
For `CC[C@@]1(O)C(=O)OCc2c1cc1n(c2=O)Cc2c-1nc1cccc3c1c2N(CCc1ccccc1)C(=O)N3` [Compound A, (9S)-9-ethyl-9-hydroxy-1-phenethyl-1H,12H-pyrano[3″,4″:6′,7′]indolizino[1′,2′:6,5]pyrido[4,3,2-de]quinazoline-2,10,13(3H,9H,15H)-trione], in that order: 11 nM, 6.5 nM, 7.1 nM and 1.9 nM.
As to `CCc1c2c(nc3ccc(O)cc13)-c1cc3c(c(=O)n1C2)COC(=O)[C@]3(O)CC` [SN-38, 7-ethyl-10-hydroxycamptothecin, reference compound], the IC50 in data set [1] was 53 nM; in data set [2], 21 nM; in data set [3] it was 27 nM; in data set [4], 6.9 nM.
